Laboratory results published in US8017350B2, “Glimepiride- and insulin-induced glycosylphosphatidylinositol-specific phospholipase C regulation” (Sanofi-Aventis Deutschland GmbH, priority 2004, dated 2011).

Legend:
[1] = system: isolated rat adipocytes; assay: glucose transport assay (2-deoxy-D-[3H]glucose); assay type: cell-based
Description: (§1) Glucose transport was determined as described in “Müller, G. et al., (1994) J. Cell Biol. 126: 1267-1276” by incubation of 10,000-20,000 washed adipocytes with 2-deoxy-D[2,6-^3H]glucose at 50 μM final conc. (0.33 μCi/ml) in 50-μl portions for 20 min at 37° C. in the absence or presence of 20 μM cytochalasin B.
(§2) Table 3: Isolated rat adipocytes were incubated in the presence of methyl-β-cyclodextrin (m-β-CD, 10 mM, 50 min), CBDP (300 μM, electroporation, followed by washing and subsequent incubation for 30 min), PIG41 (10 μM, 15 min), sodium orthovanadate (1 mM, 15 min), trypsin (10 μg/ml, 15 min followed by treatment with 0.5 M NaCl and subsequent washing) and N-ethylmaleimide (1 mM, 5 min followed by addition of DTT). After addition of GPI-2350 (50 μM final conc.) to one half of the adipocyte suspension and further incubation (60 min, 37° C.), portions of the cells were assayed for 5′-Nuc activity in the isolated IcDIGs. The increase in 5′-Nuc during the basal incubation was set at 100 arb. units. Other portions of the cells (after 15 min incubation) were assayed for glucose transport which was set at 100 arb. units for the basal incubation. Means+SD of at least 3 independent cell incubations with activity measurements in triplicate each are given.
(§3) FIG. 8: Effect of GPI-2350 on the glimepiride/insulin-induced metabolic activity. Isolated rat adipocytes were treated (5 min, 37° C.) without or with GPI-2350 (Panel A, 50 μM; Panel B, increasing conc.; Panel C, 5 μM, 50 μM) and then incubated (15 min, 37° C.) in the absence or presence of insulin (Ins, 10 nM) or glimepiride (Gli, 20 μM or increasing conc.) as indicated. The adipocytes were then assayed for glucose transport and isoproterenol-induced lipolysis. The activity is given relative to the absence of GPI-2350 in the control reaction (Panels A, basal) or in the insulin- and glimepiride-stimulated state (Panels B and C, set at 100). Means+SD of at least 5 independent cell incubations with activity measurements in triplicate each are given.

[2] = system: 5′-Nuc in isolated rat adipocytes; assay: 5′-Nuc translocation to lcDIGs induced by insulin-mimetic stimuli; assay type: cell-based
Description: as §2

[3] = system: rat adipocyte GPI-PLC; assay: adipocyte GPI-PLC assay (plasma membranes or hc/lcDIGs, AChE substrate, TX-114 partitioning); assay type: biochemical; details: at the highest concentration tested, only
Description: (§4) GPI-PLD (rat serum) was assayed according to “Hari et al. (1997) Biochim. Biophys. Acta 1355: 293-302” by incubation with 10 μl of human placental aP solution (100 U/ml in 10 mM Hepes/NaOH, pH 7.0, 150 mM NaCl) in 100 μl of 200 mM Tris/maleate (pH 7.0) and 1% Nonidet P-40 for 10 min at 37° C. and subsequent termination of the reaction by addition of 0.4 ml of ice-cold stop buffer (10 mM Hepes/NaOH, pH 7.0, 150 mM NaCl, 0.1 mM MgCl2 and 0.01 mM zinc acetate). GPI-PLC (T. brucei) was assayed as described in “Mensa-Wilmot et al. (1995) Methods Enzymol. 250: 641-655” by incubation with 5 μl of human placental aP solution (see above) in 50 μl of 50 mM Tris/HCl (pH 8.0), 0.25% Nonidet P-40 and 5 mM EDTA for 30 min at 37° C. and subsequent termination of the reaction by addition of 0.45 ml of stop buffer. PI-PLC (B. cereus) and adipocyte GPI-PLC (5-25 μg plasma membranes or hc/lcDIGs) were assayed by incubation with 10 μl of bovine erythrocyte acetylcholinesterase (AChE) solution (12 U/ml in 10 mM Tris/HCl, pH 7.4, 144 mM NaCl, 0.1% TX-100) in 100 μl of 20 mM Hepes/KOH (pH 7.8), 144 mM NaCl, 0.1% TX-100, 0.2 mM MgCl2 for 1 h at 25° C. and subsequent termination by adding 5 μl of glacial acetic acid and then 0.4 ml of 10 mM Tris/HCl (pH 7.4), 144 mM NaCl. Each reaction mixture was subjected to TX-114 partitioning (see below).
(§5) Pelleted hc/lcDIGs (10-50 μg protein) or (G)PI-PLC reaction mixtures (0.5 ml) were separated into amphiphilic and hydrophilic proteins using partitioning between TX-114-enriched and depleted phases according to “Bordier, C., (1981) J. Biol, Chem. […]” by suspending in 1 ml of ice-cold TX-114 (1%), 25 mM Tris/HCl (pH 7.4), 144 mM NaCl or mixing with 0.5 ml of ice-cold TX-114 (2%), respectively. After incubation for 1 h on ice, the mixture was layered onto a cushion of 0.4 ml of 0.25 M sucrose and 25 mM Tris/HCl (pH 7.4) on ice. Phase separation was induced by warming up to 37° C. and subsequent centrifugation (10,000×g, 1 min). After re-extraction of the lower TX-114-enriched phase, aliquots of the pooled upper TX-114-depleted phase were measured for 5′-Nuc, aP and AChE activity or precipitated (15 polyethylene glycol 4000) for SDS-PAGE analysis.
Table 1: GPI-PLC of hcDIGs from rat adipocytes, GPI-PLC from T. brucei and PI-PLC from B. cereus were incubated with solubilized and partially purified bovine erythrocyte AChE or human placental aP in the absence or presence of increasing concentrations (0.05 μM-1 mM) of the inhibitors indicated under appropriate conditions (see Materials and Methods). Cleavage rate was calculated from the amount of hydrophilic AChE and aP activity recovered with the TX-114-depleted phase upon TX-114 partitioning. […]

[4] = system: patients with type 2 diabetes; details: cited from earlier work
[5] = system: glucose transport, rat adipocytes; assay: Glucose transport in rat adipocytes; assay type: cell-based; details: for Glucose Transport: basal set at 100; for glucose transport (in words): insulin-mimetic stimuli
Description: as §1
Subsequently, we studied whether the differential effects of GPI-PLC inhibition on IRS-1 tyrosine phosphorylation in response to insulin and glimepiride is reflected in their metabolic activity in insulin target cells. For this, isolated rat adipocytes were pretreated with GPI-2350 prior to challenge with either stimulus, and then assayed for glucose transport and isoproterenol-induced lipolysis (FIG. 8). […] These differential effects of GPI-PLC inhibition were confirmed by analysis of the effect of GPI-2350 on the inhibition of isoproterenol-induced lipolysis by glimepiride and insulin when measured as release of NBD-FA instead of glycerol from rat adipocytes prelabeled with this fluorescent fatty acid derivative (FIG. 9).
as §2, §3

[6] = system: 5'-Nuc, rat adipocytes; assay: 5'-Nuc translocation to lcDIGs induced by insulin-mimetic stimuli; assay type: cell-based; details: for Increase in 5′-Nuc at lcDIGs: basal set at 100
From the text: Finally, the involvement was investigated of the GPI-PLC in signaling pathways of insulin-mimetic stimuli other than glimepiride, which are either dependent on or independent of the redistribution of GPI-proteins within DIGs. […] This is in agreement with their modes of action, the well-known inhibition of insulin receptor and IRS-1 dephosphorylation by the tyrosine phosphatase inhibitor, vanadate and the direct stimulation of pp59^Lyn and IRS-1 tyrosine phosphorylation by the CBDP.
as §2

[7] = target: T1, GPI-PLC (T. brucei) (Trypanosoma brucei brucei, UniProt P09194); assay: GPI-PLC (T. brucei) assay, human placental aP substrate, TX-114 partitioning; assay type: biochemical
T1 construct: purchased Oxford Glycosystems (Oxford, UK)
Description: as §4, §5
(§6) Table 1: GPI-PLC of hcDIGs from rat adipocytes, GPI-PLC from T. brucei and PI-PLC from B. cereus were incubated with solubilized and partially purified bovine erythrocyte AChE or human placental aP in the absence or presence of increasing concentrations (0.05 μM-1 mM) of the inhibitors indicated under appropriate conditions (see Materials and Methods). Cleavage rate was calculated from the amount of hydrophilic AChE and aP activity recovered with the TX-114-depleted phase upon TX-114 partitioning. Means+SD from at least 3 independent incubations with partitioning/enzyme assays in quadruplicate are given. n.a., not applicable.
(§7) Purified (G)PI-PLC/D from B. cereus, rat serum and T. brucei as well as total plasma membranes (PM) and hc/lcDIGs prepared from isolated rat adipocytes were incubated (10 min, 30° C.) with increasing concentrations of GPI-2350 and then assayed for amphiphilic-to-hydrophilic conversion of AChE and aP by TX-114 partitioning (see Materials and Methods). The lipolytic activity was calculated as % of the control reaction in the absence of GPI-2350 (set at 100%). Means+SD of at least 4 independent incubations with AChE and aP activity measurements in triplicate each are given.

[8] = target: T2, PI-PLC (B. cereus) (Bacillus cereus, UniProt P14262); assay: PI-PLC (B. cereus) assay, AChE substrate, TX-114 partitioning; assay type: biochemical; details: read-out: inhibition % at 1 mM
T2 construct: purchased SigmalAldrich (Deisenhofen, Germany)
Description: as §4, §5, §6, §7

[9] = +GPI-2350 (50 μM final conc., 15 min)
[10] = +GPI-2350 (50 μM final conc., 60 min)

T1 sequence (P09194 whole entry): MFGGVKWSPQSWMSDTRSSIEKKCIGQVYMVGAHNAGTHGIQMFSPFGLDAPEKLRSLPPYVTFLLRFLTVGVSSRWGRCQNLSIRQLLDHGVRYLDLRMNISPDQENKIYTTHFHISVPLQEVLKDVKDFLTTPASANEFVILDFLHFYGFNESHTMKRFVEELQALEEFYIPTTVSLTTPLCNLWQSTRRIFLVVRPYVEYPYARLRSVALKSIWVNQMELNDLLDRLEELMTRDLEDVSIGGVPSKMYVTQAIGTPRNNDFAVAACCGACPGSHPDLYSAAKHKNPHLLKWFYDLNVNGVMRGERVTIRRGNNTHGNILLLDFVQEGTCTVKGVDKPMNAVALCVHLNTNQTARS
T2 sequence (P14262 32-329 limits assumed): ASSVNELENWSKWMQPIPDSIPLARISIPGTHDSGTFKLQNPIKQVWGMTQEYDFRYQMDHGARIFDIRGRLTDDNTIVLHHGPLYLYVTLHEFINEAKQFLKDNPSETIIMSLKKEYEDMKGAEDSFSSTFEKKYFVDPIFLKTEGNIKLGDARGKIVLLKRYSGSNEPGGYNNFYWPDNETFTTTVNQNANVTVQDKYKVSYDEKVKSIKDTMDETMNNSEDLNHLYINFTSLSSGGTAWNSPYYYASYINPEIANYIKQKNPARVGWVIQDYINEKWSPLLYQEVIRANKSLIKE

For “methyl-β-cyclodextrin [m-β-CD] [listing 1 of 2 here]”, the “Glucose Transport (basal set at 100 arb. units)” value [1, 9] was 249 + 18 arb. units, the “Glucose Transport (basal set at 100 arb. units)” value ([1]; −GPI-2350) was 289 + 13 arb. units and the “Increase in 5′-Nuc at lcDIGs (basal set at 100 arb. units)” value (from here on “Increase … (basal set at 100 arb. units)”) [2, 10] was 539 + 104 arb. units. The “Increase … (basal set at 100 arb. units)” value ([2]; −GPI-2350) was 595 + 128 arb. units.
With CCCCCCCCCCCCP(=O)(O)O[C@H]1[C@H](O)[C@@H](O)[C@H](O)[C@@H](O)[C@@H]1F [GPI-1793, 2-deoxy-2-fluoro-scyllo-inositol-1-O-dodecyl-phosphonic acid] the “effect on the adipocyte GPI-PLC” value [3] was “moderate”.
In the case of CCC1=C(C)CN(C(=O)NCCc2ccc(S(=O)(=O)NC(=O)N[C@H]3CC[C@H](C)CC3)cc2)C1=O [glimepiride], the effects vs. gliclazide ([4]; 14-week study) is listed as “no differences between their effects”, the “rate of blood glucose reduction vs. glipizide” value ([4]; first few weeks of treatment) is listed as “more rapidly than glipizide” and the “effects on cardiovascular variables” value ([4]; human, in vivo) is listed as “fewer and less severe effects on cardiovascular variables than glibenclamide”. For the same molecule, the “pharmacokinetics in elderly, renal or liver disease” value ([4]; human, in vivo) was “mainly unaltered” and the “efficacy of glimepiride plus insulin” value ([4]; secondary sulphonylurea failure, fasting glucose target ≦7.8 mmol/L) was “as effective as insulin plus placebo”.
With CCN1C(=O)C=CC1=O [N-ethylmaleimide] the “Glucose Transport (basal set at 100 arb. units)” value [1, 9] was 288 + 40 arb. units, the “Glucose Transport (basal set at 100 arb. units)” value ([1]; −GPI-2350) was 308 + 33 arb. units and the “Increase … (basal set at 100 arb. units)” value [2, 10] was 319 + 52 arb. units. For the same molecule, the “Increase … (basal set at 100 arb. units)” value ([2]; −GPI-2350) was 292 + 60 arb. units.
With [Na+].[Na+].[Na+].[O]=[V]([O-])([O-])[O-] [sodium orthovanadate] the “Glucose Transport (basal set at 100 arb. units)” value [1, 9] was 673 + 45 arb. units, the “Glucose Transport (basal set at 100 arb. units)” value ([1]; −GPI-2350) was 707 + 51 arb. units and the “Increase … (basal set at 100 arb. units)” value [2, 10] was 105 + 34 arb. units. The “Increase … (basal set at 100 arb. units)” value ([2]; −GPI-2350) was 93 + 38 arb. units, the “Glucose Transport” value ([5]; +GPI-2350 (50 μM)) was 673 + 45 arb. units and the “glucose transport (in words)” value [5] was “stimulated glucose transport”. The “Glucose Transport” value ([5]; −GPI-2350) was 707 + 51 arb. units, the “5'-Nuc at lcDIGs (in words)” value [6] was “without concomitant induction of 5′-Nuc translocation to IcDIGs” and the “Increase in 5′-Nuc at lcDIGs” value ([6]; +GPI-2350 (50 μM)) was 105 + 34 arb. units. For the same molecule, the “Increase in 5′-Nuc at lcDIGs” value ([6]; −GPI-2350) was 93 + 38 arb. units.
With “methyl-β-cyclodextrin [m-β-CD] [listing 2 of 2 here]” the “Glucose Transport” value ([5]; +GPI-2350 (50 μM)) was 249 + 18 arb. units, the “glucose transport (in words)” value [5] was “glucose transport activation” and the “Glucose Transport” value ([5]; −GPI-2350) was 289 + 13 arb. units. For the same molecule, the “5'-Nuc at lcDIGs (in words)” value [6] was “pronounced increases”, the “Increase in 5′-Nuc at lcDIGs” value ([6]; +GPI-2350 (50 μM)) was 539 + 104 arb. units and the “Increase in 5′-Nuc at lcDIGs” value ([6]; −GPI-2350) was 595 + 128 arb. units.
In the case of CCCCCCCCCCCCP(=O)(OC)O[C@@H]1[C@H](O)[C@H](O)[C@@H](O)[C@H](O)[C@H]1O (stereo partly shown) [GPI-2349, myo-inositol-1-O-dodecylphosphonic acid methylester], the “effect on the adipocyte GPI-PLC” value [3] is reported as “very moderate”, the IC50 ([7]; IC50, Table 1, inhibitor 0.05 μM-1 mM) is reported as 310 to 390 µM and the inhibition at 1000 µM ([7]; read-out: inhibition % at 1 mM) is reported as 66%. The inhibition at 1000 µM [8] was 24%.
